Columns and labels:
Trypanosoma cruzi = assay: microbe, parasite or virus in culture; conditions: Tulahuen, NIH3T3, 168 h
Description: Antitrypanosomal activity against Trypanosoma cruzi Tulahuen infected in 3T3 cells after 7 days by beta-galactosidase assay

physchem = conditions: octanol/water
Description: Lipophilicity, log P of the compound

[1] = Cytotoxicity against human CRL8155 cells; format: cell-based

SMILES | EC50 (Trypanosoma cruzi) | logP (physchem) | IC50 [1]
CC1CCN(CCOc2ccc(NCc3cncn3Cc3ccc(-c4ccccc4)cc3)cc2-c2ccccc2)CC1 | 97.4 nM | 5.9 | 4470 nM
CC1CCN(CCOc2ccc(NCc3cncn3Cc3ccc(-c4ccccn4)cc3N)cc2-c2ccccc2)CC1 | 5.8 nM | 5.1 | 5270 nM
Nc1cc(N2CCOCC2)ccc1Cn1cncc1CNc1ccc(F)c(F)c1 | 358 nM | 2.2 | 
Cc1cc(NCc2cnc(C)n2Cc2ccc(-c3ccccc3)cc2N)ccc1F | > 1000 nM | 4.5 | 
Cc1ncc(CNc2ccc(F)c(Cl)c2)n1Cc1ccc(-c2ccccc2)cc1N | > 1000 nM | 4.6 | 
Cc1ncc(CNc2ccc(F)cc2)n1Cc1ccc(-c2ccccc2)cc1N | > 1000 nM | 4 | 
Clc1ccc(NCc2cncn2Cc2cccc3cc[nH]c23)cc1-c1ccccc1 | 333 nM | 5.2 | 
CCN1CCC(Cn2cncc2CNc2ccc(Cl)c(-c3ccccc3)c2)CC1 | > 1000 nM | 4.3 | 17400 nM
Clc1ccc(NCc2cncn2CC2CCNCC2)cc1-c1ccccc1 | > 1000 nM | 3.5 | 
COc1ccc(NCc2cncn2Cc2ccccc2)nc1-c1ccccc1 | 686 nM | 4.2 | 
COc1ccc(NCc2cncn2Cc2ccc(-c3ccccc3)cc2)nc1-c1ccccc1 | 12.5 nM | 5.8 | 
Nc1cc(-c2ccccc2)ccc1Cn1cncc1CNc1ccc(Cl)c(N2CCCCC2)c1 | 1.1 nM | 5.3 | > 5000 nM
Cc1cc(NCc2cncn2Cc2ccc(F)cc2F)ccc1F | 272 nM | 3.8 | 
Fc1ccc(Cn2cncc2CNc2ccc(F)c(F)c2)c(F)c1 | 212 nM | 3.5 | 
Fc1ccc(NCc2cncn2Cc2ccc(F)cc2F)cc1 | 354 nM | 3.3 | 
Cc1ncc(CNc2ccc(F)c(F)c2)n1Cc1ccc(-c2ccccc2)cc1N | > 1000 nM | 4.1 | 
c1ccc(-c2ccc(Cn3cncc3CNc3ccc(OCCN4CCOCC4)c(-c4ccccc4)c3)cc2)cc1 | 35.2 nM | 5.9 | 
c1ccc(-c2ccc(Cn3cncc3CNc3ccc(NCCN4CCOCC4)c(-c4ccccc4)c3)cc2)cc1 | 115 nM | 5.9 | 

SMILES | EC50 (Trypanosoma cruzi) | logP (physchem) | IC50 [1]
c1ccc(-c2ccc(Cn3cncc3CNc3ccc(OCCN4CCCCC4)c(-c4ccccc4)c3)cc2)cc1 | 317 nM | 6.9 | 
c1ccc(-c2ccc(Cn3cncc3CNc3ccc(NCCN4CCCCC4)c(-c4ccccc4)c3)cc2)cc1 | 194 nM | 6.6 | 10700 nM
Cc1cccc(-c2ccc(Cn3cncc3CNc3ccc(-c4nc5ccccc5s4)c(-c4ccccc4)c3)cc2)c1 | 5.4 nM | 8.9 | 
Oc1ccc(-c2cc(NCc3cncn3Cc3ccc(-c4ccccc4)cc3)ccc2-c2nc3ccccc3s2)cc1 | 11 nM | 8.1 | 20000 nM
COc1ccc(-c2cc(NCc3cncn3Cc3ccc(-c4ccccc4)cc3)ccc2-c2nc3ccccc3s2)cc1 | 10 nM | 8.2 | 
Nc1ccc(-c2cc(NCc3cncn3Cc3ccc(-c4ccccc4)cc3)ccc2-c2nc3ccccc3s2)cc1 | 1.6 nM | 7.6 | 27500 nM
N#Cc1ccc(-c2cc(NCc3cncn3Cc3ccc(-c4ccccc4)cc3)ccc2-c2nc3ccccc3s2)cc1 | 32 nM | 8.2 | 
Clc1ccc(NCc2cncn2Cc2ccc(-c3ccccc3)cc2)cc1-n1cccc1 | 30.4 nM | 5.6 | 
Clc1ccc(NCc2cncn2Cc2ccc(-c3ccccc3)cc2)cc1N1CCCCC1 | 53.6 nM | 6.1 | 
c1ccc(-c2cc(NCc3cncn3Cc3ccc(-c4ccco4)cc3)ccc2-c2nc3ccccc3s2)cc1 | 21.2 nM | 7.4 | 
c1ccc(-c2cc(NCc3cncn3Cc3ccc(-c4ccccn4)cc3)ccc2-c2nc3ccccc3s2)cc1 | 19.3 nM | 7.5 | 
c1ccc(-c2cc(NCc3cncn3Cc3ccc(-c4cccs4)cc3)ccc2-c2nc3ccccc3s2)cc1 | 11.1 nM | 8.2 | 
Nc1ccccc1-c1ccc(Cn2cncc2CNc2ccc(-c3nc4ccccc4s3)c(-c3ccccc3)c2)cc1 | 75.4 nM | 7.6 | 
Oc1ccccc1-c1ccc(Cn2cncc2CNc2ccc(-c3nc4ccccc4s3)c(-c3ccccc3)c2)cc1 | 123 nM | 8.1 | 
Cc1ccc(-c2ccc(Cn3cncc3CNc3ccc(-c4nc5ccccc5s4)c(-c4ccccc4)c3)cc2)cc1 | 50 nM | 8.9 | 
Clc1ccc(-c2ccc(Cn3cncc3CNc3ccc(-c4nc5ccccc5s4)c(-c4ccccc4)c3)cc2)cc1 | 48.5 nM | 9 | 
CC[C@@H]([C@H](C)O)n1ncn(-c2ccc(N3CCN(c4ccc(OC[C@@H]5CO[C@@](Cn6cncn6)(c6ccc(F)cc6F)C5)cc4)CC3)cc2)c1=O [POSACONAZOLE] | < 1 nM |  | 

More lines, main results first:

EC50 (Trypanosoma cruzi) | logP (physchem) | SMILES | IC50 [1]
1 nM | 7.6 | Nc1cc(-c2ccccc2)ccc1Cn1cncc1CNc1ccc(-c2nc3ccccc3s2)c(-c2ccccc2)c1 | 
3.2 nM | 4 | Nc1cc(-c2ccccc2)ccc1Cn1cncc1CNc1ccc(F)c(F)c1 | 
1.1 nM | 3.8 | Nc1cc(-c2ccccc2)ccc1Cn1cncc1CNc1ccc(F)cc1 | 
0.4 nM | 6.2 | Cc1ccc(NCc2cncn2Cc2ccc(-c3ccccc3)cc2N)cc1-c1c(F)cccc1F | > 5000 nM
1.5 nM |  | Nc1cc(-c2ccccc2)ccc1Cn1cncc1CNc1ccc(OCCN2CCOCC2)c(-c2ccc(Cl)cc2)c1 | 
1.4 nM |  | Nc1cc(Cl)ccc1Cn1cncc1CNc1ccc(-c2nc3ccccc3s2)c(-c2ccccc2)c1 | 
14.5 nM | 4.7 | COc1ccc(Cn2cncc2CNc2ccc(F)c(-c3ccccc3)c2)c(N)c1 | 
12.8 nM | 4.5 | Nc1cc(Cl)ccc1Cn1cncc1CNc1ccc(F)c(-c2ccccc2)c1 | 
233 nM | 3.8 | Nc1ccccc1Cn1cncc1CNc1ccc(F)c(-c2ccccc2)c1 | 
333 nM | 4.8 | Fc1ccc(NCc2cncn2Cc2cccc3cc[nH]c23)cc1-c1ccccc1 | 
87 nM | 6.5 | Nc1cc(-c2ccccc2)ccc1Cn1cncc1CNc1ccc(Cl)c(-c2ccccc2N2CCCC2)c1 | 
24.5 nM | 5.9 | Nc1cc(-c2ccccc2)ccc1Cn1cncc1CNc1ccc(Cl)c(-c2ccccc2N2CCOCC2)c1 | 
20.8 nM | 4.7 | Nc1cc(-c2ccccc2)ccc1Cn1cncc1CNc1ccc(Cl)c(-c2ccccc2N2CCCCC2)c1 | 
0.3 nM | 5.1 | Nc1ccc(-c2cc(NCc3cncn3Cc3ccc(-c4ccccc4)cc3N)ccc2Cl)cc1 | 12900 nM
9 nM | 5 | Nc1cc(-c2ccccc2)ccc1Cn1cncc1CNc1ccc(Cl)c(Cl)c1 | 
5 nM | 3.5 | Nc1cc(-c2ccccc2)ccc1Cn1cncc1CNc1ccc(Cl)c(-n2ccnc2)c1 | 14600 nM
3.8 nM | 4.8 | Nc1cc(-c2ccccc2)ccc1Cn1cncc1CNc1ccc(Cl)c(-n2cccc2)c1 | 
0.6 nM | 4.4 | Cc1cc(NCc2cncn2Cc2ccc(-c3ccccc3)cc2N)ccc1Cl | 12900 nM
2.1 nM | 4.3 | Nc1cc(-c2ccccc2)ccc1Cn1cncc1CNc1ccc(Cl)cc1 | 
0.4 nM | 5.8 | Nc1cc(-c2ccccc2)ccc1Cn1cncc1CNc1ccc(F)c(-c2c(F)cccc2F)c1 | 
1.2 nM | 4.3 | Nc1cc(-c2ccccc2)ccc1Cn1cncc1CNc1ccc(F)c(Cl)c1 | 

EC50 (Trypanosoma cruzi) | logP (physchem) | SMILES | IC50 [1]
0.8 nM | 5.5 | Nc1cc(-c2ccccc2)ccc1Cn1cncc1CNc1ccc(F)c(-c2ccccc2)c1 | 18800 nM
83.2 nM | 5.7 | Clc1ccc(NCc2cncn2Cc2ccc(-c3ccccc3)cc2Cl)cc1 | 
26 nM | 5.8 | Cc1cc(NCc2cncn2Cc2ccc(-c3ccccc3)cc2Cl)ccc1F | 
48.7 nM | 5.9 | Fc1ccc(NCc2cncn2Cc2ccc(-c3ccccc3)cc2Cl)cc1Cl | 
38.1 nM | 5.4 | Fc1ccc(NCc2cncn2Cc2ccc(-c3ccccc3)cc2Cl)cc1F | 
11.7 nM | 6.6 | Fc1ccc(NCc2cncn2Cc2ccc(-c3ccccc3)cc2)cc1-c1c(F)cccc1F | 17500 nM
35.1 nM | 6.6 | COc1cc(-c2ccccc2)ccc1Cn1cncc1CNc1ccc(Cl)c(-c2ccccc2)c1 | 
5.9 nM | 6.5 | Oc1cc(-c2ccccc2)ccc1Cn1cncc1CNc1ccc(Cl)c(-c2ccccc2)c1 | 21500 nM
89.3 nM | 8 | Oc1cc(-c2ccccc2)ccc1Cn1cncc1CNc1ccc(-c2nc3ccccc3s2)c(-c2ccccc2)c1 | 
> 1000 nM | 7.2 | O=C(O)c1cc(-c2ccccc2)ccc1Cn1cncc1CNc1ccc(-c2nc3ccccc3s2)c(-c2ccccc2)c1 | 
27.2 nM | 8.2 | COc1cc(-c2ccccc2)ccc1Cn1cncc1CNc1ccc(-c2nc3ccccc3s2)c(-c2ccccc2)c1 | 
12 nM | 6.5 | Fc1cc(-c2ccccc2)ccc1Cn1cncc1CNc1ccc(F)c(-c2ccccc2)c1 | 
70.2 nM | 4.8 | Fc1ccc(NCc2cncn2Cc2ccc(-c3ccccc3)cc2F)cc1 | 
53 nM | 5.3 | Cc1cc(NCc2cncn2Cc2ccc(-c3ccccc3)cc2F)ccc1F | 
49 nM | 5.4 | Fc1ccc(NCc2cncn2Cc2ccc(-c3ccccc3)cc2F)cc1Cl | 
46 nM | 5 | Fc1ccc(NCc2cncn2Cc2ccc(-c3ccccc3)cc2F)cc1F | 
36.6 nM | 7 | Cc1ccc(NCc2cncn2Cc2ccc(-c3ccccc3)cc2)cc1-c1c(F)cccc1F | 
27.2 nM | 5.6 | Clc1ccc(NCc2cncn2Cc2ccc(-c3ccccc3)cc2)cc1-c1ccncc1 | 
64.8 nM | 5.6 | Clc1ccc(NCc2cncn2Cc2ccc(-c3ccccc3)cc2)cc1-c1cccnc1 | 
20 nM | 8.4 | c1ccc(-c2ccc(Cn3cncc3CNc3ccc(-c4nc5ccccc5s4)c(-c4ccccc4)c3)cc2)cc1 | 

— ChEMBL document CHEMBL2439965, “Dialkylimidazole inhibitors of Trypanosoma cruzi sterol 14α-demethylase as anti-Chagas disease agents” (Bioorg Med Chem Lett, 2013)
